Results as given in patent US20230085307A1, “PYRIDAZINONE COMPOUND AND HERBICIDE” (NISSAN CHEMICAL CORPORATION, priority 2019, published 2023).

What follows are compounds tested on chickweed (assay: Test Example 4: herbicidal effect by soil treatment (Table 19, symbol P)). Conditions: amount of applied herbicide 320 g/ha.
Format: in vivo, common chickweed (Stellaria media)
In short: (§1)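 Three weeks of greenhouse growth at 25° C. to 30° C. followed a uniform surface spray of water-diluted emulsion at a predetermined herbicide amount. Seeds had been sown beforehand under about 1.5 cm of sterilized diluvial soil. Grading followed criteria set out in an earlier test.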
Cc1nn(C)c(=O)c(-c2c(-c3ccc(SC4CC4)cc3)sc3ccc(F)cc23)c1O [2-254] was tested, and the “herbicidal effect on P: chickweed” value was 4 (Herbicidal rate of 70% or more and less than 90%).

What follows are compounds tested on redroot pigweed (assay: Test Example 5: herbicidal effect by foliage application, plastic box (Table 20, symbol N)). Conditions: foliage application, AAH 320 g/ha, evaluated three weeks after application.
Format: in vivo, redroot pigweed (Amaranthus retroflexus)
In short: (§2)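 Plants sown in sterilized diluvial soil and grown 14 days in a greenhouse at 25° C to 30° C, then sprayed on the foliage with the compound's emulsion diluted in water to a predetermined herbicide amount. Injury to weeds and crops scored three weeks after application on a visual rating scale.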
For Cc1nn(C)c(=O)c(-c2c(-c3ccc(SC4CC4)cc3)sc3ccc(F)cc23)c1O [2-254], the “N: redroot pigweed, herbicidal effect (criteria 0-5)” value was 5 (Herbicidal rate of 90% or more (almost completely withered)).

The compounds below were run on blackgrass (assay: Test Example 4: herbicidal effect by soil treatment (Table 19, symbol J)). Conditions: amount of applied herbicide 320 g/ha.
Format: in vivo, blackgrass (Alopecurus myosuroides)
In short: as §1
With Cc1nn(C)c(=O)c(-c2c(-c3ccc(SC4CC4)cc3)sc3ccc(F)cc23)c1O [2-254] the “herbicidal effect on J: blackgrass” value was 4 (Herbicidal rate of 70% or more and less than 90%).

The compounds below were run on green foxtail (assay: Test Example 4: herbicidal effect by soil treatment (Table 19, symbol G)). Conditions: amount of applied herbicide 320 g/ha.
Format: in vivo, green foxtail (Setaria viridis)
In short: as §1
In the case of Cc1nn(C)c(=O)c(-c2c(-c3ccc(SC4CC4)cc3)sc3ccc(F)cc23)c1O [2-254], the “herbicidal effect on G: green foxtail” value is reported as 5 (Herbicidal rate of 90% or more (almost completely withered)).

What follows are compounds tested on barnyard grass (assay: Test Example 4: herbicidal effect by soil treatment (Table 19, symbol H)). Conditions: amount of applied herbicide 320 g/ha.
Format: in vivo, barnyard grass (Echinochloa crus-galli)
In short: as §1
Cc1nn(C)c(=O)c(-c2c(-c3ccc(SC4CC4)cc3)sc3ccc(F)cc23)c1O [2-254] was tested, and the “herbicidal effect on H: barnyard grass” value was 5 (Herbicidal rate of 90% or more (almost completely withered)).

What follows are compounds tested on velvetleaf (assay: Test Example 4: herbicidal effect by soil treatment (Table 19, symbol M)). Conditions: amount of applied herbicide 320 g/ha.
Format: in vivo, velvetleaf (Abutilon theophrasti)
In short: as §1
For Cc1nn(C)c(=O)c(-c2c(-c3ccc(SC4CC4)cc3)sc3ccc(F)cc23)c1O [2-254], the “herbicidal effect on M: velvetleaf” value was 2 (Herbicidal rate of 20% or more and less than 40%).

The compounds below were run on velvetleaf (assay: Test Example 5: herbicidal effect by foliage application, plastic box (Table 20, symbol M)). Conditions: foliage application, AAH 320 g/ha, evaluated three weeks after application.
Format: in vivo, velvetleaf (Abutilon theophrasti)
In short: as §2
For Cc1nn(C)c(=O)c(-c2c(-c3ccc(SC4CC4)cc3)sc3ccc(F)cc23)c1O [2-254], the “M: velvetleaf, herbicidal effect (criteria 0-5)” value was 5 (Herbicidal rate of 90% or more (almost completely withered)).

Each compound was assayed on windgrass (assay: Test Example 5: herbicidal effect by foliage application, plastic box (Table 20, symbol L)). Conditions: foliage application, AAH 320 g/ha, evaluated three weeks after application.
Format: in vivo, windgrass (Apera spica-venti)
In short: as §2
Cc1nn(C)c(=O)c(-c2c(-c3ccc(SC4CC4)cc3)sc3ccc(F)cc23)c1O [2-254] was tested, and the “L: windgrass, herbicidal effect (criteria 0-5)” value was 5 (Herbicidal rate of 90% or more (almost completely withered)).

What follows are compounds tested on persian speedwell (assay: Test Example 4: herbicidal effect by soil treatment (Table 19, symbol R)). Conditions: amount of applied herbicide 320 g/ha.
Format: in vivo, Persian speedwell (Veronica persica)
In short: as §1
In the case of Cc1nn(C)c(=O)c(-c2c(-c3ccc(SC4CC4)cc3)sc3ccc(F)cc23)c1O [2-254], the “herbicidal effect on R: persian speedwell” value is reported as 5 (Herbicidal rate of 90% or more (almost completely withered)).

What follows are compounds tested on chickweed (assay: Test Example 5: herbicidal effect by foliage application, plastic box (Table 20, symbol P)). Conditions: foliage application, AAH 320 g/ha, evaluated three weeks after application.
Format: in vivo, common chickweed (Stellaria media)
In short: as §2
With Cc1nn(C)c(=O)c(-c2c(-c3ccc(SC4CC4)cc3)sc3ccc(F)cc23)c1O [2-254] the “P: chickweed, herbicidal effect (criteria 0-5)” value was 5 (Herbicidal rate of 90% or more (almost completely withered)).

The compounds below were run on lambsquarters (assay: Test Example 4: herbicidal effect by soil treatment (Table 19, symbol O)). Conditions: amount of applied herbicide 320 g/ha.
Format: in vivo, lambsquarters (Chenopodium album)
In short: as §1
With Cc1nn(C)c(=O)c(-c2c(-c3ccc(SC4CC4)cc3)sc3ccc(F)cc23)c1O [2-254] the “herbicidal effect on O: lambsquarters” value was 4 (Herbicidal rate of 70% or more and less than 90%).

What follows are compounds tested on wild oat (assay: Test Example 4: herbicidal effect by soil treatment (Table 19, symbol I)). Conditions: amount of applied herbicide 320 g/ha.
Format: in vivo, wild oat (Avena fatua)
In short: as §1
With Cc1nn(C)c(=O)c(-c2c(-c3ccc(SC4CC4)cc3)sc3ccc(F)cc23)c1O [2-254] the “herbicidal effect on I: wild oat” value was 1 (Herbicidal rate of 5% or more and less than 20%).

The compounds below were run on lambsquarters (assay: Test Example 5: herbicidal effect by foliage application, plastic box (Table 20, symbol O)). Conditions: foliage application, AAH 320 g/ha, evaluated three weeks after application.
Format: in vivo, lambsquarters (Chenopodium album)
In short: as §2
For Cc1nn(C)c(=O)c(-c2c(-c3ccc(SC4CC4)cc3)sc3ccc(F)cc23)c1O [2-254], the “O: lambsquarters, herbicidal effect (criteria 0-5)” value was 5 (Herbicidal rate of 90% or more (almost completely withered)).

The compounds below were run on southern crabgrass (assay: Test Example 4: herbicidal effect by soil treatment (Table 19, symbol F)). Conditions: amount of applied herbicide 320 g/ha.
Format: in vivo, southern crabgrass (Digitaria ciliaris)
In short: as §1
In the case of Cc1nn(C)c(=O)c(-c2c(-c3ccc(SC4CC4)cc3)sc3ccc(F)cc23)c1O [2-254], the “herbicidal effect on F: southern crabgrass” value is reported as 5 (Herbicidal rate of 90% or more (almost completely withered)).

The compounds below were run on Italian ryegrass (assay: Test Example 5: herbicidal effect by foliage application, plastic box (Table 20, symbol K)). Conditions: foliage application, AAH 320 g/ha, evaluated three weeks after application.
Format: in vivo, Italian ryegrass (Lolium multiflorum)
In short: as §2
Cc1nn(C)c(=O)c(-c2c(-c3ccc(SC4CC4)cc3)sc3ccc(F)cc23)c1O [2-254] was tested, and the “K: Italian ryegrass, herbicidal effect (criteria 0-5)” value was 5 (Herbicidal rate of 90% or more (almost completely withered)).

What follows are compounds tested on oval-leafed pondweed (assay: Test Example 1: herbicidal activity, application before weed generation under submerged conditions (Table 16, symbol C)). Conditions: 320 g/ha applied herbicide.
Format: in vivo, oval-leafed pondweed (Monochoria vaginalis)
In short: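 Alluvial soil was flooded to 4 cm depth, weed seeds were sown mixed and 2.5-leaf rice seedlings were transplanted. On sowing day, the compound's emulsion, diluted in water to a set dose, was applied to the water surface. Plants grew at 25–30 °C and were scored 0–5 after three weeks.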
With Cc1nn(C)c(=O)c(-c2c(-c3ccc(SC4CC4)cc3)sc3ccc(F)cc23)c1O [2-254] the “Herbicidal effect on C: oval-leafed pondweed (grade 0-5)” value was 1 (Herbicidal rate of 5% or more and less than 20%).

The compounds below were run on Japanese bulrush (assay: Test Example 2: herbicidal activity, application during weed generation under submerged conditions (Table 17, symbol B)). Conditions: AAH 320 g/ha; application during weed generation, submerged conditions.
Format: in vivo, Japanese bulrush (Schoenoplectus juncoides)
In short: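 Steps: fill Wagner pots with alluvial soil; add water to give 4 cm depth; sow the species mixed; grow under glass at 25–30° C.; at 1–2 leaves apply water-diluted emulsion formulation to the water surface at a fixed herbicide amount; score after 3 weeks.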
For Cc1nn(C)c(=O)c(-c2c(-c3ccc(SC4CC4)cc3)sc3ccc(F)cc23)c1O [2-254], the “herbicidal effect rating, B: Japanese bulrush” value was 0 (Herbicidal rate of 5% or less (almost no effect)).
